According to publication PMC6582431 (Chemmedchem, 2018):
Read-outs that look alike come from different tables or passages of the source.

Legend:
[1] = target: T1, FAAH (Mus musculus, UniProt O08914); assay: In vivo FAAH inhibition, brain, after oral administration to mice; details: for in vivo FAAH inhibitory activity, brain: text b31; for time of maximal inhibitory effect in the brain (t max): post-dose; for ED50 cerebral FAAH: 0.001 to 3 mg kg^−1, 8 h post-administration
T1 sequence (O08914 1-579): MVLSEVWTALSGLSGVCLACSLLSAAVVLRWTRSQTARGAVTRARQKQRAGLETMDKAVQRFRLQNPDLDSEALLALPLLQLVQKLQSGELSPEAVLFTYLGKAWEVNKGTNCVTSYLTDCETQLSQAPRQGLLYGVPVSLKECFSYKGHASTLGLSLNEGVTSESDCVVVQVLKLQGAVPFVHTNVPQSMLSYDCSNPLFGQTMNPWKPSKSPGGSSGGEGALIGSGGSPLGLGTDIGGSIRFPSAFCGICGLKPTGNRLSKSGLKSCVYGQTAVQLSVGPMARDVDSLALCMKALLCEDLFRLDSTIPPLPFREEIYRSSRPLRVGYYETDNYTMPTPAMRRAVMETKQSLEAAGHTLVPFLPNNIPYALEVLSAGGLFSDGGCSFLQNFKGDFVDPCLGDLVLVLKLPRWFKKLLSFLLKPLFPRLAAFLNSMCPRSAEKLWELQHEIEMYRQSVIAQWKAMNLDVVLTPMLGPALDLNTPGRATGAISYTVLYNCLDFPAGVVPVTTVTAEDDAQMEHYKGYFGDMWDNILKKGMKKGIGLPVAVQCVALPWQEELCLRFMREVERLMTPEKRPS

[2] = target: T1, FAAH; assay: In vivo FAAH inhibition, liver, after oral administration to mice; details: for in vivo FAAH inhibitory activity, liver: 0.1 mg kg^−1, mouse, p.o., text b31; for time of maximum inhibitory effect in the liver: 0.1 mg kg^−1 p.o., mice, post-dose
[3] = CYP450 metabolic stability, dog liver microsomes; assay type: in vitro ADME; details: 5 μM in liver microsomes, 1 h incubation
[4] = CYP450 metabolic stability, primate liver microsomes; assay type: in vitro ADME; details: 5 μM in liver microsomes, 1 h incubation
[5] = CYP450 metabolic stability, human liver microsomes; assay type: in vitro ADME; details: 5 μM in liver microsomes, 1 h incubation
[6] = CYP450 metabolic stability, mouse liver microsomes; assay type: in vitro ADME; details: 1 h incubation; for CYP450 metabolic stability, Mouse, percent of remaining: 5 μM in liver microsomes; for CYPs (50 μM), percentage remaining: C inhib=50 μM in mouse liver microsomes
[7] = CYP450 metabolic stability, rat liver microsomes; assay type: in vitro ADME; details: 5 μM in liver microsomes, 1 h incubation
[8] = target: T2, MAGL (Rattus norvegicus, UniProt Q8R431); assay: MAGL activity in rat cerebellum cytosol; assay type: biochemical; details: for MAGL (100 μM), percent of control / MAGL activity, percent of control: C inhib=100 μM in rat cerebellum cytosol; for selectivity over MAGL: text b31; for MAGL activity, percent of control: Table 2
T2 sequence (Q8R431 1-303): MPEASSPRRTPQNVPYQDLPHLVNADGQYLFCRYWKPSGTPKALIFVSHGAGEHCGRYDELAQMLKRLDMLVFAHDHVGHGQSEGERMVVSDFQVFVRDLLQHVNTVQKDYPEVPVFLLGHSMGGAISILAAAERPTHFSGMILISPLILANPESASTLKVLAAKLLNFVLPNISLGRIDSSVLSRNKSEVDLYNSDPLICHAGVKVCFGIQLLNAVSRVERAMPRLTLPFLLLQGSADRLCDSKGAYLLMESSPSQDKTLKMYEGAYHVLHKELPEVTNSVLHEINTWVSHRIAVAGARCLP

[9] = tested on: carboxylesterases (CEs); assay: CE activity in rat liver microsomes; assay type: biochemical; details: for CEs (10 μM), percent of control: 10 μM in rat liver microsomes; for selectivity over CEs: text b31; for CEs activity, percent of control: C inhib=10 μM in rat liver microsomes, Table 2
[10] = tested on: FAAH; details: read-out: FAAH IC50 (in vitro potency); cited from earlier work
[11] = target: T3, FAAH (Rattus norvegicus, UniProt P97612); assay: In vitro FAAH activity in rat brain homogenates/membranes; assay type: biochemical
T3 sequence (P97612 1-579): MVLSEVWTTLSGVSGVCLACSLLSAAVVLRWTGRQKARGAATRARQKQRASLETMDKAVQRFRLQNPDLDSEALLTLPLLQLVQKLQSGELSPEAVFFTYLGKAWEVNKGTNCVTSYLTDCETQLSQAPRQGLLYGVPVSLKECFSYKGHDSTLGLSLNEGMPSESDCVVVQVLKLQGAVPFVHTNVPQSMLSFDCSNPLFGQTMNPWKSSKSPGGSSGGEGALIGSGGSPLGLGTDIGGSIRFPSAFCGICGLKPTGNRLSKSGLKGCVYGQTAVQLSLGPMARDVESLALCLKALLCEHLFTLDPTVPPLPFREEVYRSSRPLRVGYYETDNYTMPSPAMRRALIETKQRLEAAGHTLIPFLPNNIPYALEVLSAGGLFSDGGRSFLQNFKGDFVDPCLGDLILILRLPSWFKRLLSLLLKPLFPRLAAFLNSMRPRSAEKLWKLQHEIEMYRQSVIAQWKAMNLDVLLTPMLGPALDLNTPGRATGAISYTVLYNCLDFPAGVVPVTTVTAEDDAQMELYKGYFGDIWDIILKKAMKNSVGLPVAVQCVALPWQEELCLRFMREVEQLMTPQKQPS

[12] = 0.1 mg kg^−1 p.o. in mice, 8 h after administration, Table 4
[13] = mouse, po, 8 h, read-out: ED50 liver FAAH
[14] = 30 mg kg^−1 p.o. in mice, 1 h after administration, Table 2
[15] = 0.1 mg kg^−1 p.o. in mice, 8 h after administration, Table 5

Row | Compound | in vivo FAAH inhibitory activity, brain ([1]; 0.1 mg kg^−1, mouse, p.o.) | Brain FAAH activity, percent of control [1, 12] | time of maximal inhibitory effect in the brain (t max) ([1]; 0.1 mg kg^−1 p.o., mice) [h] | ED50 cerebral FAAH ([1]; mice, p.o.) | in vivo FAAH inhibitory activity, liver [2] | Liver FAAH activity, percent of control [2, 12] | time of maximum inhibitory effect in the liver [2] [h] | ED50 [2, 13] [mg/kg] | CYP450 metabolic stability, Dog, percent of remaining [3] | CYP450 metabolic stability, Primate, percent of remaining [4] | CYP450 metabolic stability, Human, percent of remaining [5] | CYP450 metabolic stability, Mouse, percent of remaining [6] | CYPs (50 μM), percentage remaining [6] [percentage remaining] | CYP450 metabolic stability, Rat, percent of remaining [7] | MAGL (100 μM), percent of control ([8]; Table 4) | selectivity over MAGL [8] | CEs (10 μM), percent of control ([9]; Table 4) | selectivity over CEs [9] | Brain FAAH activity, percent of control [1, 14] | Liver FAAH activity, percent of control [2, 14] | other results
1 | CC1(C)COCN1C(=O)n1nnc2cc(C(N)=O)ccc21 [Compound 11 h, 1‐(4,4‐Dimethyloxazolidine‐3‐carbonyl)‐1H‐benzo[d][1,2,3]triazole‐5‐carboxamide] | > 90 % of control | 6±1% of control | 1 | 0.014 mg/kg | > 90 % of control | 6±1% of control | 1 | 0.007 | 101±6% of remaining | 57±3% of remaining | 96±8% of remaining | 87±9% of remaining | 67±2 | 87±0% of remaining | 96±2% of control | > 80 % of control | 81±7% of control | > 80 % of control |  |  | inhibition at 0.1 mg/kg ([2]; mouse, po, read-out: peripheral inhibition of FAAH sustained over the next 7 h): > 90%
2 | NC(=O)c1cccc(-c2cccc(OC(=O)NC3CCCCC3)c2)c1 [Compound 2, URB597, reference compound] |  | 91±7% of control |  |  |  | 74±20% of control |  |  |  |  |  |  |  |  | 87±4% of control |  | […] |  | 9±2% of control | 6±1% of control | FAAH inhibition in the brain ([1]; 30 mg kg^−1 p.o., mice, 1 h post-administration): over 90%; inhibition at 30 mg/kg ([2]; mouse, po, read-out: FAAH inhibition in the liver): > 90%; MAGL activity, percent of control [8]: 87±4% of control; IC50 [10]: […]; CEs activity, percent of control [9]: […]
3 | CC1(C)COCN1C(=O)n1nnc2ccccc21 [Compound 11 a] |  | 24±7% of control |  |  |  | 10±4% of control |  |  | 1±0% of remaining | 0±0% of remaining | 52±9% of remaining | 5±0% of remaining | 25±2 | 26±0% of remaining | 90±5% of control |  | 81±6% of control |  | 0±0% of control | 2±1% of control | ED50 brain (cerebral) FAAH ([1]; mouse, p.o., 0.001–3.0 mg kg^−1, 1 h post-dose): 0.061 mg/kg; ED50 ([2]; mouse, po, 1 h, read-out: ED50 liver (peripheral) FAAH): 0.007 mg/kg; IC50 [11]: 19 nM; FAAH activity, percent of control, 10 nM ([11]; 10 nM, rat brain homogenates, 15 min pre-incubation, Table 2): 78±25% of control; FAAH activity, percent of control, 100 nM ([11]; rat brain homogenates, 15 min pre-incubation, Table 2): 2±1% of control; MAGL activity, percent of control [8]: 90±5% of control; CEs activity, percent of control [9]: 81±6% of control
4 | CN(C(=O)n1cnc(-c2ccccc2)c1)C1CCN(Cc2ccccc2)CC1 [Compound 8 h] | > 90 % of control |  | 8 | approximately 79 μg kg^−1 | > 90 % of control |  | 1 | 0.028 | 54±0% of remaining | 41±3% of remaining | 75±4% of remaining | 62±0% of remaining |  | 88±6% of remaining |  | > 80 % of control |  | > 80 % of control |  |  | cerebral (brain) FAAH inhibition ([1]; 0.1 mg kg^−1, mouse, p.o., 8 h post-dose): over 90%; Brain FAAH activity, percent of control [1, 15]: 11±4% of control; central FAAH inhibition maintained up to 48 h post-administration ([1]; 0.1 mg kg^−1 p.o., mice, up to 48 h): > 50%; Liver FAAH activity, percent of control [2, 15]: 10±2% of control; inhibition at 0.1 mg/kg ([2]; mouse, po, read-out: peripheral (liver) FAAH inhibition): > 90%; FAAH activity, percent of control, 100 nM ([11]; rat brain homogenates, 15 min pre-incubation, Table 5): 41±7% of control; MAGL (100 μM), percent of control ([8]; Table 5): 92±8% of control; CEs (10 μM), percent of control ([9]; Table 5): 97±8% of control
